Measured values published in ChEMBL document CHEMBL5236630, “Discovery of selective platelet-derived growth factor receptor-beta (PDGFR-β) bifunctional small-molecule degraders” (Bioorg Med Chem, 2023).
The source made the active and inactive calls. The rule behind the calls is not given here.

Key:
[1] = Induction of apoptosis in human U87 cells assessed as necrotic cells at 10 uM incubated for 48 hrs by Annexin-V/PI staining based flow cytometry (Rvb= 1.13%); assay type: functional, U-87MG ATCC
[2] = biological target: T1, von Hippel-Lindau disease tumor suppressor/Platelet-derived growth factor receptor beta (Homo sapiens) (UniProt P09619+P40337); experiment: Protac activity at VHL/PDGFRbeta in human U87 cells assessed as reduction in PDGFRbeta protein level at 10 uM preincubated with sorafenib for 2hrs followed by compound treatment and measured after 48 hrs by Western blot analysis; assay type: cell-based
T1 sequence (P09619 33-1106 limits assumed): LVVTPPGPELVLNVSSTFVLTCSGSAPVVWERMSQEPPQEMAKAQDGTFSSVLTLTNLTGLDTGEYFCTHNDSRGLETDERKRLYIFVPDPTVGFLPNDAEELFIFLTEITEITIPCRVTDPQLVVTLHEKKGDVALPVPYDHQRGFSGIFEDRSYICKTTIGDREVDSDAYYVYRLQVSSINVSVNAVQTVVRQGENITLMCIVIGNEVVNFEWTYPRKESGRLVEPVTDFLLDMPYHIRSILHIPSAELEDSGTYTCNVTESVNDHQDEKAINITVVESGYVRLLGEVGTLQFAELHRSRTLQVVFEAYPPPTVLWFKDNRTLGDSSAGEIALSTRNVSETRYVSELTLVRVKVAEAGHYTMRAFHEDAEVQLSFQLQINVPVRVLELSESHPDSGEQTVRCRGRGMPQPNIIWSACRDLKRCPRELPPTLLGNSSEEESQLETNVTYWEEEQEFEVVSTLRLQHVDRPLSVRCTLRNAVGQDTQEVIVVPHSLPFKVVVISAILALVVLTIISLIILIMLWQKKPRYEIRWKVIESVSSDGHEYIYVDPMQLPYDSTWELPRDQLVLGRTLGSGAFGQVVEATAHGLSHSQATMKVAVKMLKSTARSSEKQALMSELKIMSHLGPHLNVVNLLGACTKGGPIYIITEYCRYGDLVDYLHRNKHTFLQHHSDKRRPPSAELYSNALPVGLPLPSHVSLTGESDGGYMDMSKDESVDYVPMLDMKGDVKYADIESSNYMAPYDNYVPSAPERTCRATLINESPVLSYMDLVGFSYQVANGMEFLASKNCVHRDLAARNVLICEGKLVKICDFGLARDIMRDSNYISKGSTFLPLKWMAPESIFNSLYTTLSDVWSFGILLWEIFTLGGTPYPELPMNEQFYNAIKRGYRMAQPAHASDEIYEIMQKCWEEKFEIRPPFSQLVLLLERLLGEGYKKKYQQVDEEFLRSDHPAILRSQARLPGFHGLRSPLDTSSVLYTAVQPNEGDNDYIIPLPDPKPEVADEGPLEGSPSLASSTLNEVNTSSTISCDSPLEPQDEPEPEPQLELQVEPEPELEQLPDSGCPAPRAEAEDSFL
T1 sequence (P40337 whole entry partner): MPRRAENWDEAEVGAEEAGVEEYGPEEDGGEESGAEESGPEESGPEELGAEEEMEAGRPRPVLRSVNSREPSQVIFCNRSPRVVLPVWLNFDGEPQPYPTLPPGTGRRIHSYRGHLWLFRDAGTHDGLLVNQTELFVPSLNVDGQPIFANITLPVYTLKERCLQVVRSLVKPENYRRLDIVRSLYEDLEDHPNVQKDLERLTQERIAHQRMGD

[3] = Induction of apoptosis in human U87 cells assessed as viable cells at 5 uM incubated for 48 hrs by Annexin-V/PI staining based flow cytometry (Rvb= 93.16%); assay type: functional, U-87MG ATCC; conditions: U-87 MG, read-out: Activity
[4] = biological target: T1, von Hippel-Lindau disease tumor suppressor/Platelet-derived growth factor receptor beta (Homo sapiens); experiment: Protac activity at VHL/PDGFRbeta in human U87 cells assessed as reduction in PDGFRbeta protein level at 10 uM incubated for 4 to 16 hrs by Western blot analysis; assay type: cell-based; conditions: time 4-16 hrs
[5] = biological target: T1, von Hippel-Lindau disease tumor suppressor/Platelet-derived growth factor receptor beta (Homo sapiens); experiment: Protac activity at VHL/PDGFRbeta in human U87 cells assessed as reduction in PDGFRbeta protein level at 10 uM preincubated with VH032 for 2hrs followed by compound treatment and measured after 48 hrs by Western blot analysis; assay type: cell-based
[6] = biological target: Serine/threonine-protein kinase B-raf (Homo sapiens) (UniProt P15056); experiment: Protac activity at BRAF in human EA.hy 926 cells assessed decrease in BRAF level at 10 uM incubated for 72 hrs by Western blot analysis; assay type: cell-based
Sequence of Serine/threonine-protein kinase B-raf (Homo sapiens) (P15056 whole entry): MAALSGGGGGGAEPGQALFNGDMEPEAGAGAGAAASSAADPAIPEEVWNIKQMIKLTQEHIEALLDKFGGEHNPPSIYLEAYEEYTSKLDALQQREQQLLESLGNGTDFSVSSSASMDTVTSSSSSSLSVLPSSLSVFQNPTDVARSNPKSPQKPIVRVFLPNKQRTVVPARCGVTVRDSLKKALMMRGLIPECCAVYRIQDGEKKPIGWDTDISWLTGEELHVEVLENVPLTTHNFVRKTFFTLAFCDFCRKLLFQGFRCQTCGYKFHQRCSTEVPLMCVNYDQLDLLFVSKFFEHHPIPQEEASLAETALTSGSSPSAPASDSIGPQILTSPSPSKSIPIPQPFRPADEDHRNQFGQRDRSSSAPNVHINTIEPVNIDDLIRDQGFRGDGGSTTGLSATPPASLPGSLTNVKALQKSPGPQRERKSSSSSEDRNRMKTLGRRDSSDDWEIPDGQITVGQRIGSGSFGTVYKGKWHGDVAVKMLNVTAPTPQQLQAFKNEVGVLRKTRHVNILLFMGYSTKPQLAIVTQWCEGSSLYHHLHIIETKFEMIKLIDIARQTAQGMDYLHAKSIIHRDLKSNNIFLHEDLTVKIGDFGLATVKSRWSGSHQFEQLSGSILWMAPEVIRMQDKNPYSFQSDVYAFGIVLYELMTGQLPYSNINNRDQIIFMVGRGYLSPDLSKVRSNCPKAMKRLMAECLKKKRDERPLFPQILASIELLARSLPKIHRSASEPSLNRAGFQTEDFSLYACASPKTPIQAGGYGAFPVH

[7] = biological target: Platelet-derived growth factor receptor beta (Homo sapiens) (UniProt P09619); experiment: Protac activity at PDGFRbeta in human U87 cells assessed as reduction in PDGFRbeta protein level at 0.1 to 10 uM incubated for 48 to 72 hrs by Western blot analysis; assay type: cell-based; conditions: dose 0.1-10 µM, time 48-72 hrs
Sequence of Platelet-derived growth factor receptor beta (Homo sapiens) (P09619 whole entry): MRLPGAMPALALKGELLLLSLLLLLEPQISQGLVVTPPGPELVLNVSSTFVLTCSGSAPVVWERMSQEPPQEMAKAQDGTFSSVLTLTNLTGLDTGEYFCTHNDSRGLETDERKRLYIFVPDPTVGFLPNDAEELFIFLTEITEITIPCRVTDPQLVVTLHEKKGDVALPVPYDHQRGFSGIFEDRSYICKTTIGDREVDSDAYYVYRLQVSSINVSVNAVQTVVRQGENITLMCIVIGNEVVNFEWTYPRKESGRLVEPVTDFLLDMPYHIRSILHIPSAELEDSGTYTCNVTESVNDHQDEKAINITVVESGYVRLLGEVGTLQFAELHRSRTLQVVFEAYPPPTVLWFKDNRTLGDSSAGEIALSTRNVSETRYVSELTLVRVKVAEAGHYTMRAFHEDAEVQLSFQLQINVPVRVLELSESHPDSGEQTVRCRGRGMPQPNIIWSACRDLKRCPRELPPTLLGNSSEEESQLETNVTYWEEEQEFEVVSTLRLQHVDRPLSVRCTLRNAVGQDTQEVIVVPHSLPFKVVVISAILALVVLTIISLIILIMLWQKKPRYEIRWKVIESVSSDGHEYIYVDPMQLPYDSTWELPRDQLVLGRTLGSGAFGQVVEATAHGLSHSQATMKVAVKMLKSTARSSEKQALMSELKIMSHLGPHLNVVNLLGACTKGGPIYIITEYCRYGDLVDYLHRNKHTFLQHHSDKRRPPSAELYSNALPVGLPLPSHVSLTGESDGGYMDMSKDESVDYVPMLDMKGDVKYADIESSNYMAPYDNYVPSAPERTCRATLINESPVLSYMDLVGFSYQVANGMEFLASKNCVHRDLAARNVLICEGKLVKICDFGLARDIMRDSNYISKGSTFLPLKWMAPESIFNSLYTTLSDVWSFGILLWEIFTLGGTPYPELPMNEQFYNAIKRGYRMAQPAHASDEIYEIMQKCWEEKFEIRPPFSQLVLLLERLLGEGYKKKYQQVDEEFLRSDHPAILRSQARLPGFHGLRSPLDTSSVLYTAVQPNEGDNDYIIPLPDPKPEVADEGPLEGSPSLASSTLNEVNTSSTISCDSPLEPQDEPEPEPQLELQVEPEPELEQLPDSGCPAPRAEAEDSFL

[8] = Induction of apoptosis in human U87 cells assessed as early apoptotic cells at 20 uM incubated for 48 hrs by Annexin-V/PI staining based flow cytometry (Rvb= 2.74%); assay type: functional, U-87MG ATCC
[9] = Induction of apoptosis in human U87 cells assessed as viable cells at 0.1 uM incubated for 48 hrs by Annexin-V/PI staining based flow cytometry (Rvb= 93.16%); assay type: functional, U-87MG ATCC; conditions: U-87 MG, read-out: Activity
[10] = biological target: T1, von Hippel-Lindau disease tumor suppressor/Platelet-derived growth factor receptor beta (Homo sapiens); experiment: Protac activity at VHL/PDGFRbeta in human U87 cells assessed as reduction in PDGFRbeta protein level at 10 uM preincubated with MG-132 for 2hrs followed by compound treatment and measured after 48 hrs by Western blot analysis; assay type: cell-based
[11] = Induction of apoptosis in human U87 cells assessed as early apoptotic cells at 1 uM incubated for 48 hrs by Annexin-V/PI staining based flow cytometry (Rvb= 2.74%); assay type: functional, U-87MG ATCC
[12] = Antiproliferative activity against human U87 cells assessed as reduction in cell viability incubated for 48 hrs by MTT assay; assay type: functional, cell-based, U-87MG ATCC; conditions: U-87 MG
[13] = Induction of apoptosis in human U87 cells assessed as late apoptotic cells at 5 uM incubated for 48 hrs by Annexin-V/PI staining based flow cytometry (Rvb= 2.97%); assay type: functional, U-87MG ATCC
[14] = biological target: T1, von Hippel-Lindau disease tumor suppressor/Platelet-derived growth factor receptor beta (Homo sapiens); experiment: Protac activity at VHL/PDGFRbeta in human U87 cells assessed as reduction in PDGFRbeta protein level at 10 uM preincubated with Leupeptin for 2hrs followed by compound treatment and measured after 48 hrs by Western blot analysis; assay type: cell-based
[15] = Induction of apoptosis in human U87 cells assessed as early apoptotic cells at 10 uM incubated for 48 hrs by Annexin-V/PI staining based flow cytometry (Rvb= 2.74%); assay type: functional, U-87MG ATCC
[16] = biological target: Platelet-derived growth factor receptor beta (Homo sapiens) (UniProt P09619); experiment: Protac activity at PDGFRbeta in human U87 cells assessed as reduction in PDGFRbeta protein level at 10 uM incubated for 72 hrs by Western blot analysis; assay type: cell-based; set-up: scale not given: the % may be the effect or the level left
[17] = Induction of apoptosis in human U87 cells assessed as viable cells at 10 uM incubated for 48 hrs by Annexin-V/PI staining based flow cytometry (Rvb= 93.16%); assay type: functional, U-87MG ATCC; conditions: U-87 MG, read-out: Activity
[18] = Induction of apoptosis in human U87 cells assessed as necrotic cells at 0.1 uM incubated for 48 hrs by Annexin-V/PI staining based flow cytometry (Rvb= 1.13%); assay type: functional, U-87MG ATCC
[19] = Induction of apoptosis in human U87 cells assessed as viable cells at 20 uM incubated for 48 hrs by Annexin-V/PI staining based flow cytometry (Rvb= 93.16%); assay type: functional, U-87MG ATCC; conditions: U-87 MG, read-out: Activity
[20] = tested on: U-87MG ATCC; experiment: Induction of cell cycle arrest in human U87 cells assessed decrease of cells in G2 phase at 1 to 10 uM incubated for 48 hrs by flow cytometry; assay type: functional, cell-based; conditions: dose 1-10 µM
[21] = Induction of apoptosis in human U87 cells assessed as early apoptotic cells at 5 uM incubated for 48 hrs by Annexin-V/PI staining based flow cytometry (Rvb= 2.74%); assay type: functional, U-87MG ATCC
[22] = biological target: T1, von Hippel-Lindau disease tumor suppressor/Platelet-derived growth factor receptor beta (Homo sapiens); experiment: Protac activity at VHL/PDGFRbeta in human U87 cells assessed as reduction in PDGFRbeta protein level at 0.1 to 15 uM incubated for 72 hrs by Western blot analysis; assay type: cell-based; conditions: dose 0.1-15 µM
[23] = Induction of apoptosis in human U87 cells assessed as late apoptotic cells at 0.1 uM incubated for 48 hrs by Annexin-V/PI staining based flow cytometry (Rvb= 2.97%); assay type: functional, U-87MG ATCC
[24] = Induction of apoptosis in human U87 cells assessed as necrotic cells at 5 uM incubated for 48 hrs by Annexin-V/PI staining based flow cytometry (Rvb= 1.13%); assay type: functional, U-87MG ATCC
[25] = biological target: T1, von Hippel-Lindau disease tumor suppressor/Platelet-derived growth factor receptor beta (Homo sapiens); experiment: Protac activity at VHL/PDGFRbeta in human U87 cells assessed as reduction in PDGFRbeta protein level at 10 uM preincubated with Carfilzomib for 2hrs followed by compound treatment and measured after 48 hrs by Western blot analysis; assay type: cell-based
[26] = Induction of apoptosis in human U87 cells assessed as necrotic cells at 20 uM incubated for 48 hrs by Annexin-V/PI staining based flow cytometry (Rvb= 1.13%); assay type: functional, U-87MG ATCC
[27] = tested on: U-87MG ATCC; experiment: Induction of cell cycle arrest in human U87 cells assessed increase of cells in S phase at 1 to 10 uM incubated for 48 hrs by flow cytometry; assay type: functional, cell-based; conditions: dose 1-10 µM
[28] = Induction of apoptosis in human U87 cells assessed as viable cells at 1 uM incubated for 48 hrs by Annexin-V/PI staining based flow cytometry (Rvb= 93.16%); assay type: functional, U-87MG ATCC; conditions: U-87 MG, read-out: Activity
[29] = Induction of apoptosis in human U87 cells assessed as necrotic cells at 1 uM incubated for 48 hrs by Annexin-V/PI staining based flow cytometry (Rvb= 1.13%); assay type: functional, U-87MG ATCC
[30] = Induction of apoptosis in human U87 cells assessed as early apoptotic cells at 0.1 uM incubated for 48 hrs by Annexin-V/PI staining based flow cytometry (Rvb= 2.74%); assay type: functional, U-87MG ATCC
[31] = Induction of apoptosis in human U87 cells assessed as late apoptotic cells at 1 uM incubated for 48 hrs by Annexin-V/PI staining based flow cytometry (Rvb= 2.97%); assay type: functional, U-87MG ATCC
[32] = tested on: HEK293; experiment: Cytotoxicity against human HEK293 cells assessed as reduction in cell viability at 50 uM incubated for 48 hrs by MTT assay; assay type: toxicity, cell-based; conditions: hek293, 48 h
[33] = Induction of apoptosis in human U87 cells assessed as late apoptotic cells at 10 uM incubated for 48 hrs by Annexin-V/PI staining based flow cytometry (Rvb= 2.97%); assay type: functional, U-87MG ATCC
[34] = biological target: Platelet-derived growth factor receptor beta (Homo sapiens) (UniProt P09619); experiment: Protac activity at PDGFRbeta in human U87 cells assessed as reduction in PDGFRbeta protein level at 10 uM incubated for 48 hrs by Western blot analysis; assay type: cell-based
[35] = biological target: Platelet-derived growth factor receptor beta (Homo sapiens) (UniProt P09619); experiment: Protac activity at PDGFRbeta in human U87 cells assessed as increase in VEGFR-2 protein level at 10 uM incubated for 72 hrs by Western blot analysis; assay type: cell-based
[36] = Induction of apoptosis in human U87 cells assessed as late apoptotic cells at 20 uM incubated for 48 hrs by Annexin-V/PI staining based flow cytometry (Rvb= 2.97%); assay type: functional, U-87MG ATCC
[37] = tested on: HepG2; experiment: Antiproliferative activity against human HepG2 cells assessed as reduction in cell viability incubated for 48 hrs by MTT assay; assay type: functional, cell-based; conditions: HepG2, 48 h
[38] = tested on: EA.hy 926; experiment: Antiproliferative activity against human EA.hy 926 cells assessed as reduction in cell viability incubated for 48 hrs by MTT assay; assay type: functional, cell-based; conditions: EA.hy 926, 48 h

Cc1ncsc1-c1ccc(CNC(=O)[C@@H]2C[C@@H](O)CN2C(=O)[C@@H](NC(=O)CCCNC(=O)c2cc(Oc3ccc(NC(=O)Nc4ccc(Cl)c(C(F)(F)F)c4)cc3)ccn2)C(C)(C)C)cc1
Activity [1]: 0.85% | Activity [2]: Active | viability at 5 µM [3]: 96.1% | Activity [4]: Dose-Dependent Effect | Activity [5]: Active | Activity [6]: Active | Activity [7]: Dose-Dependent Effect | Activity [8]: 3.25% | viability at 0.1 µM [9]: 95.3% | Activity [10]: inactive | Activity [11]: 1.66% | IC50 [12]: 12.3 µM | Activity [13]: 1.59% | Activity [14]: inactive | Activity [15]: 2.49% | Activity [16]: > 70% | viability at 10 µM [17]: 94.6% | Activity [18]: 0.89% | viability at 20 µM [19]: 90.6% | Activity [20]: Active | Activity [21]: 1.66% | Activity [22]: Active | Activity [23]: 1.82% | Activity [24]: 0.63% | Activity [25]: Active | Activity [26]: 1.63% | Activity [27]: Active | viability at 1 µM [28]: 96.2% | Activity [29]: 0.49% | Activity [30]: 2.02% | Activity [31]: 1.71% | Activity [32]: Non-Toxic | Activity [33]: 2.03% | Activity [34]: Active | Activity [35]: Active | Activity [36]: 4.56%

O=C(CNc1cccc2c1C(=O)N(C1CCC(=O)NC1=O)C2=O)NCCCCNC(=O)c1cc(Oc2ccc(NC(=O)Nc3ccc(Cl)c(C(F)(F)F)c3)cc2)ccn1 (stereo unspecified)
Activity [7]: Dose-Dependent Effect | Activity [16]: > 70% | Activity [32]: Non-Toxic | Activity [34]: Active | Activity [35]: Active

Cc1ncsc1-c1ccc(CNC(=O)[C@@H]2C[C@H](O)CN2C(=O)[C@@H](NC(=O)CCCNC(=O)c2cc(Oc3ccc(NC(=O)Nc4ccc(Cl)c(C(F)(F)F)c4)cc3)ccn2)C(C)(C)C)cc1
IC50 [37]: > 50 µM | IC50 [12]: 20.3 µM | Activity [22]: inactive | IC50 [38]: > 50 µM

O=C1CCC(N2Cc3c(NC(=O)CCCNC(=O)c4cc(Oc5ccc(NC(=O)Nc6ccc(Cl)c(C(F)(F)F)c6)cc5)ccn4)cccc3C2=O)C(=O)N1 (stereo unspecified)
Activity [7]: Dose-Dependent Effect | IC50 [37]: 0.039 µM | Activity [16]: > 70% | Activity [32]: Non-Toxic | Activity [34]: Active | Activity [35]: Active | IC50 [38]: 13.4 µM

CNC(=O)c1cc(Oc2ccc(NC(=O)Nc3ccc(Cl)c(C(F)(F)F)c3)cc2)ccn1 [SORAFENIB]
IC50 [37]: 2.69 µM | IC50 [12]: 12.7 µM | Activity [32]: Non-Toxic | IC50 [38]: 11 µM
